# Where two headings read alike, the source gives them in different places.
# Legend:
# [1] = tested on: Hela (human cervical cancer); test: MTT in vitro cytotoxicity assay, Hela; type: cell-based; conditions: read-out: IC50 Hela
# [2] = tested on: MCF-7 (human breast cancer); test: MTT in vitro cytotoxicity assay, MCF-7; type: cell-based; conditions: read-out: IC50 MCF-7
# [3] = tested on: DU-145 (human prostate cancer); test: MTT in vitro cytotoxicity assay, DU-145; type: cell-based; conditions: read-out: IC50 DU-145
# [4] = tested on: A549 (human lung cancer); test: MTT in vitro cytotoxicity assay, A549; type: cell-based; conditions: read-out: IC50 A549
# [5] = tested on: HepG2 (liver cancer); test: MTT in vitro cytotoxicity assay, HepG2; type: cell-based; conditions: Homo sapiens, read-out: IC50 HepG2
# [6] = tested on: HT-29 (colon cancer); test: MTT in vitro cytotoxicity assay, HT-29; type: cell-based; conditions: Homo sapiens, read-out: IC50 HT-29
# [7] = tested on: human cancer cell lines (Hela, MCF-7, DU-145, A549, HepG2, HT-29); test: MTT in vitro cytotoxicity assay, all tested human cancer cell lines; type: cell-based; conditions: range over Hela, read-out: IC50 values ranging over all tested human cancer cell lines
# Excerpt: The IC50 values (in μM) for compounds 8a, 8c, 8n, 8p, 9c and 9p have been illustrated in Table 1.
SMILES,melting point [°C],"IC50 ([1]; HeLa, 48 h) [nM]","IC50 ([2]; MCF7, 48 h) [nM]","IC50 ([3]; DU-145, 48 h) [nM]","IC50 ([4]; A549, 48 h) [nM]","IC50 ([5]; HepG2, 48 h) [nM]","IC50 ([6]; HT-29, 48 h) [nM]",IC50 [7] [nM],"IC50 ([1]; Hela, 48 h of drug treatment, average of three individual experiments) [nM]","IC50 ([2]; MCF7, MCF-7, 48 h of drug treatment, average of three individual experiments) [nM]","IC50 ([3]; DU-145, 48 h of drug treatment, average of three individual experiments) [nM]","IC50 ([4]; A549, 48 h of drug treatment, average of three individual experiments) [nM]","IC50 ([5]; HepG2, 48 h of drug treatment, average of three individual experiments) [nM]","IC50 ([6]; HT-29, 48 h of drug treatment, average of three individual experiments) [nM]"
COc1cc(OC)cc(-n2cc(C(=O)N[C@@H]3c4cc5c(cc4[C@@H](c4cc(OC)c(OC)c(OC)c4)[C@H]4C(=O)OC[C@@H]43)OCO5)nn2)c1,145 to 148,,,,,,,,,,,,,
COc1cc([C@@H]2c3cc4c(cc3[C@@H](NC(=O)c3cn(-c5cc(OC)c(OC)c(OC)c5)nn3)[C@H]3COC(=O)[C@H]23)OCO4)cc(OC)c1OC,181 to 183,,,,,,,,,,,,,
COc1cc([C@@H]2c3cc4c(cc3[C@@H](NC(=O)c3cn(-c5ccc6c(c5)OCO6)nn3)[C@H]3COC(=O)[C@H]23)OCO4)cc(OC)c1OC,188 to 191,,,,,,,,,,,,,
COc1cc(Cn2cc(C(=O)N[C@@H]3c4cc5c(cc4[C@@H](c4cc(OC)c(OC)c(OC)c4)[C@H]4C(=O)OC[C@@H]43)OCO5)nn2)cc(OC)c1OC,189 to 192,,,,,,,,,,,,,
"COc1cc([C@@H]2c3cc4c(cc3[C@@H](NC(=O)c3cn(-c5ccccc5)nn3)[C@H]3COC(=O)[C@H]23)OCO4)cc(OC)c1OC [Compound 8a, N-((5S,5aS,8aR,9R)-8-oxo-9-(3,4,5-trimethoxyphenyl)-5,5a,6,8,8a,9-hexahydrofuro[3′,4′:6,7]naphtho[2,3-d][1,3]dioxol-5-yl)-1-phenyl-1H-1,2,3-triazole-4-carboxamide]",170 to 172,2470 ± 240,1450 ± 460,1310 ± 110,1820 ± 110,1940 ± 130,5370 ± 740,700 to 4000,,,,,,
"COc1ccc(-n2cc(C(=O)N[C@@H]3c4cc5c(cc4[C@@H](c4cc(OC)c(OC)c(OC)c4)[C@H]4C(=O)OC[C@@H]43)OCO5)nn2)cc1 [Compound 8c, 1-(4-methoxyphenyl)-N-((5S,5aS,8aR,9R)-8-oxo-9-(3,4,5-trimethoxyphenyl)-5,5a,6,8,8a,9-hexahydrofuro[3′,4′:6,7]naphtho[2,3-d][1,3]dioxol-5-yl)-1H-1,2,3-triazole-4-carboxamide]",195 to 197,6490 ± 220,1110 ± 100,990 ± 70,1610 ± 380,2790 ± 540,11400 ± 1660,700 to 4000,,,,,,
"COc1cc([C@@H]2c3cc4c(cc3[C@@H](NC(=O)c3cn(-c5ccc(C(F)(F)F)cc5)nn3)[C@H]3COC(=O)[C@H]23)OCO4)cc(OC)c1OC [Compound 8n, N-((5S,5aS,8aR,9R)-8-oxo-9-(3,4,5-trimethoxyphenyl)-5,5a,6,8,8a,9-hexahydrofuro[3′,4′:6,7]naphtho[2,3-d][1,3]dioxol-5-yl)-1-(4-(trifluoromethyl)phenyl)-1H-1,2,3-triazole-4-carboxamide]",190 to 194,1210 ± 270,1350 ± 70,890 ± 20,1960 ± 80,1210 ± 270,4400 ± 50,700 to 4000,,,,,,
"COc1cc([C@@H]2c3cc4c(cc3[C@@H](NC(=O)c3cn(-c5ccc(Cl)cc5)nn3)[C@H]3COC(=O)[C@H]23)OCO4)cc(OC)c1OC [Compound 8p, 1-(4-chlorophenyl)-N-((5S,5aS,8aR,9R)-8-oxo-9-(3,4,5-trimethoxyphenyl)-5,5a,6,8,8a,9-hexahydrofuro[3′,4′:6,7]naphtho[2,3-d][1,3]dioxol-5-yl)-1H-1,2,3-triazole-4-carboxamide]",222 to 225,780,970,700,1200,780,4110,700 to 4110,,,,,,
"COc1ccc(Cn2cc(C(=O)N[C@@H]3c4cc5c(cc4[C@@H](c4cc(OC)c(OC)c(OC)c4)[C@H]4C(=O)OC[C@@H]43)OCO5)nn2)cc1 [Compound 9c, 1-(4-methoxybenzyl)-N-((5S,5aS,8aR,9R)-8-oxo-9-(3,4,5-trimethoxyphenyl)-5,5a,6,8,8a,9-hexahydrofuro[3′,4′:6,7]naphtho[2,3-d][1,3]dioxol-5-yl)-1H-1,2,3-triazole-4-carboxamide]",174 to 177,3460 ± 60,3320 ± 550,1760 ± 270,5820 ± 430,1960 ± 70,17500 ± 340,700 to 4000,,,,,,
"COc1cc([C@@H]2c3cc4c(cc3[C@@H](NC(=O)c3cn(Cc5ccc(Cl)cc5)nn3)[C@H]3COC(=O)[C@H]23)OCO4)cc(OC)c1OC [Compound 9p, 1-(4-chlorobenzyl)-N-((5S,5aS,8aR,9R)-8-oxo-9-(3,4,5-trimethoxyphenyl)-5,5a,6,8,8a,9-hexahydrofuro[3′,4′:6,7]naphtho[2,3-d][1,3]dioxol-5-yl)-1H-1,2,3-triazole-4-carboxamide]",180 to 184,3570 ± 160,5300 ± 390,2370 ± 80,8060 ± 60,3540 ± 370,23700 ± 380,700 to 4000,,,,,,
"COc1cc([C@@H]2c3cc4c(cc3[C@@H](O[C@@H]3O[C@@H]5CO[C@@H](C)O[C@H]5[C@H](O)[C@H]3O)[C@H]3COC(=O)[C@H]23)OCO4)cc(OC)c1O [Etoposide, reference compound]",,,,,,,,,2710 ± 520,1620 ± 140,2350 ± 50,1970 ± 170,2840 ± 270,1870 ± 310
COc1cc([C@@H]2c3cc4c(cc3[C@H](O)[C@H]3COC(=O)[C@H]23)OCO4)cc(OC)c1OC [Podophyllotoxin],,3450 ± 290,3060 ± 240,4150 ± 630,4600 ± 420,6630 ± 170,4780 ± 160,,,,,,,
